# Measured values taken from patent US20230053540A1, “TREATMENT OF LIVER INJURY” (Massachusetts Institute of Technology, priority 2019, published 2023).
# Tested on: hepatocytes
# Experiment: Seq-Well scRNA-Seq of hepatocytes after APAP overdose (signature scores, DEG vs untreated)
# Assay type: in vivo, mouse
structure (smiles),measurement,setting,value
"CC(=O)Nc1ccc(O)cc1 [APAP, acetaminophen]",Ubb A48logFC,A48 vs UT,−0.2644
same,0610005C13Rik avg_logFC,A96 vs untreated (UT),0.2979
same,0610005C13Rik pct.1,A96 vs untreated (UT),0.816
same,0610007P14Rik avg_logFC,A96 vs untreated (UT),0.2519
same,0610007P14Rik pct.1,A96 vs untreated (UT),0.512
same,8430408G22Rik avg_logFC,A96 vs untreated (UT),0.2527
same,8430408G22Rik pct.1,A96 vs untreated (UT),0.559
same,Abca6 avg_logFC,A96 vs untreated (UT),0.2823
same,Abca6 pct.1,A96 vs untreated (UT),0.686
same,Abcb4 avg_logFC,A96 vs untreated (UT),0.4758
same,Abcb4 pct.1,A96 vs untreated (UT),0.878
same,Abcc3 pct.1,A96 vs untreated (UT),0.733
same,Acad11 avg_logFC,A96 vs untreated (UT),0.2578
same,Acad11 pct.1,A96 vs untreated (UT),0.711
same,Acadl avg_logFC,A96 vs untreated (UT),0.2937
same,Acadl pct.1,A96 vs untreated (UT),0.8
same,Acat1 avg_logFC,A96 vs untreated (UT),0.3485
same,Acat1 pct.1,A96 vs untreated (UT),0.917
same,Acbd5 avg_logFC,A96 vs untreated (UT),0.4341
same,Acbd5 pct.1,A96 vs untreated (UT),0.87
same,Acot1 avg_logFC,A96 vs untreated (UT),0.298
same,Acot1 pct.1,A96 vs untreated (UT),0.459
same,Acot4 avg_logFC,A96 vs untreated (UT),0.268
same,Acot4 pct.1,A96 vs untreated (UT),0.328
same,Acot12 avg_logFC,A96 vs untreated (UT),0.2957
same,Acot12 pct.1,A96 vs untreated (UT),0.65
same,Acsl1 avg_logFC,A96 vs untreated (UT),0.2915
same,Acsl1 pct.1,A96 vs untreated (UT),0.977
same,Actn4 avg_logFC,A96 vs untreated (UT),0.2609
same,Actn4 pct.1,A96 vs untreated (UT),0.6
same,Agpat6 avg_logFC,A96 vs untreated (UT),0.4098
same,Agpat6 pct.1,A96 vs untreated (UT),0.743
same,Agt avg_logFC,A96 vs untreated (UT),0.3765
same,Agt pct.1,A96 vs untreated (UT),0.912
same,Akr1c6 avg_logFC,A96 vs untreated (UT),−0.359
same,Akr1c6 pct.1,A96 vs untreated (UT),0.967
same,Akr1d1 avg_logFC,A96 vs untreated (UT),0.3787
same,Akr1d1 pct.1,A96 vs untreated (UT),0.721
same,Aldh2 avg_logFC,A96 vs untreated (UT),0.304
same,Aldh2 pct.1,A96 vs untreated (UT),0.995
same,Aldh3a2 avg_logFC,A96 vs untreated (UT),0.4933
same,Aldh3a2 pct.1,A96 vs untreated (UT),0.687
same,Aldh6a1 avg_logFC,A96 vs untreated (UT),0.2669
same,Aldh6a1 pct.1,A96 vs untreated (UT),0.829
same,Aldh9a1 avg_logFC,A96 vs untreated (UT),0.3633
same,Aldh9a1 pct.1,A96 vs untreated (UT),0.884
same,Amy1 avg_logFC,A96 vs untreated (UT),0.4212
same,Amy1 pct.1,A96 vs untreated (UT),0.831
same,Angptl3 avg_logFC,A96 vs untreated (UT),0.6936
same,Angptl3 pct.1,A96 vs untreated (UT),0.998
same,Apoc1 avg_logFC,A96 vs untreated (UT),0.5008
same,Apoc1 pct.1,A96 vs untreated (UT),1
same,Apoc2 avg_logFC,A96 vs untreated (UT),0.5187
same,Apoc2 pct.1,A96 vs untreated (UT),0.901
same,Apoc3 avg_logFC,A96 vs untreated (UT),0.3002
same,Apoe avg_logFC,A96 vs untreated (UT),0.327
same,Apoe pct.1,A96 vs untreated (UT),1
same,Apoh avg_logFC,A96 vs untreated (UT),0.3467
same,Apoh pct.1,A96 vs untreated (UT),0.998
same,Apol7a avg_logFC,A96 vs untreated (UT),0.2716
same,Apol7a pct.1,A96 vs untreated (UT),0.559
same,Aqp9 avg_logFC,A96 vs untreated (UT),0.3346
same,Aqp9 pct.1,A96 vs untreated (UT),0.801
same,Arl4a avg_logFC,A96 vs untreated (UT),0.2911
same,Arl4a pct.1,A96 vs untreated (UT),0.517
same,Asl avg_logFC,A96 vs untreated (UT),0.4141
same,Asl pct.1,A96 vs untreated (UT),0.896
same,Atf5 avg_logFC,A96 vs untreated (UT),0.2708
same,Atf5 pct.1,A96 vs untreated (UT),0.745
same,Atp5k avg_logFC,A96 vs untreated (UT),0.4068
same,Atp5k pct.1,A96 vs untreated (UT),0.837
same,Atp5h avg_logFC,A96 vs untreated (UT),0.3114
same,Atp5h pct.1,A96 vs untreated (UT),0.848
same,Atxn7l3b avg_logFC,A96 vs untreated (UT),0.2828
same,Atxn7l3b pct.1,A96 vs untreated (UT),0.654
same,BC005537 avg_logFC,A96 vs untreated (UT),0.2869
same,BC005537 pct.1,A96 vs untreated (UT),0.611
same,Baat avg_logFC,A96 vs untreated (UT),0.2625
same,Baat pct.1,A96 vs untreated (UT),0.862
same,Bche avg_logFC,A96 vs untreated (UT),0.3287
same,Bche pct.1,A96 vs untreated (UT),0.588
same,Bnip3 avg_logFC,A96 vs untreated (UT),0.3443
same,Bnip3 pct.1,A96 vs untreated (UT),0.716
same,Brap avg_logFC,A96 vs untreated (UT),0.3113
same,Brap pct.1,A96 vs untreated (UT),0.642
same,Brd2 avg_logFC,A96 vs untreated (UT),0.3104
same,Brd2 pct.1,A96 vs untreated (UT),0.601
same,Cbr1 avg_logFC,A96 vs untreated (UT),0.2829
same,Cbr1 pct.1,A96 vs untreated (UT),0.591
same,Cd36 avg_logFC,A96 vs untreated (UT),0.3312
same,Cd36 pct.1,A96 vs untreated (UT),0.299
same,Cdo1 avg_logFC,A96 vs untreated (UT),0.5679
same,Cdo1 pct.1,A96 vs untreated (UT),0.998
same,Ces1c avg_logFC,A96 vs untreated (UT),0.3583
same,Ces1c pct.1,A96 vs untreated (UT),1
same,Ces1e avg_logFC,A96 vs untreated (UT),0.2944
same,Ces1e pct.1,A96 vs untreated (UT),0.71
same,Ces3a avg_logFC,A96 vs untreated (UT),−0.2844
same,Ces3a pct.1,A96 vs untreated (UT),0.97
same,Ces3b avg_logFC,A96 vs untreated (UT),−0.3398
same,Ces3b pct.1,A96 vs untreated (UT),0.685
same,Ces1d avg_logFC,A96 vs untreated (UT),0.4277
same,Ces1d pct.1,A96 vs untreated (UT),0.977
same,Chchd10 avg_logFC,A96 vs untreated (UT),0.608
same,Chchd10 pct.1,A96 vs untreated (UT),0.994
same,Chp1 avg_logFC,A96 vs untreated (UT),0.2687
same,Chp1 pct.1,A96 vs untreated (UT),0.687
same,Cox5a avg_logFC,A96 vs untreated (UT),0.3398
same,Cox5a pct.1,A96 vs untreated (UT),0.813
same,Cox6a1 avg_logFC,A96 vs untreated (UT),0.2517
same,Cox6a1 pct.1,A96 vs untreated (UT),0.943
same,Cox8a avg_logFC,A96 vs untreated (UT),0.3089
same,Cox8a pct.1,A96 vs untreated (UT),0.737
same,Cp avg_logFC,A96 vs untreated (UT),0.2826
same,Cp pct.1,A96 vs untreated (UT),0.993
same,Cpeb4 avg_logFC,A96 vs untreated (UT),0.3418
same,Cpeb4 pct.1,A96 vs untreated (UT),0.527
same,Cpox avg_logFC,A96 vs untreated (UT),0.3326
same,Cpox pct.1,A96 vs untreated (UT),0.634
same,Cpt1a avg_logFC,A96 vs untreated (UT),0.3742
same,Cpt1a pct.1,A96 vs untreated (UT),0.837
same,Crat avg_logFC,A96 vs untreated (UT),0.2624
same,Crat pct.1,A96 vs untreated (UT),0.389
same,Creg1 avg_logFC,A96 vs untreated (UT),0.2586
same,Creg1 pct.1,A96 vs untreated (UT),0.985
same,Crot avg_logFC,A96 vs untreated (UT),0.3326
same,Crot pct.1,A96 vs untreated (UT),0.989
same,Csde1 avg_logFC,A96 vs untreated (UT),0.2567
same,Csde1 pct.1,A96 vs untreated (UT),0.742
same,Ctage5 avg_logFC,A96 vs untreated (UT),0.3217
same,Ctage5 pct.1,A96 vs untreated (UT),0.837
same,Cxcl12 avg_logFC,A96 vs untreated (UT),0.3372
same,Cxcl12 pct.1,A96 vs untreated (UT),0.635
same,Cyp4a10 avg_logFC,A96 vs untreated (UT),1.12
same,Cyp4a10 pct.1,A96 vs untreated (UT),0.974
same,Cyp4a14 avg_logFC,A96 vs untreated (UT),1.601
same,Cyp4a14 pct.1,A96 vs untreated (UT),0.975
same,D4Wsu53e avg_logFC,A96 vs untreated (UT),0.3032
same,D4Wsu53e pct.1,A96 vs untreated (UT),0.597
same,D17Wsu92e avg_logFC,A96 vs untreated (UT),0.3581
same,D17Wsu92e pct.1,A96 vs untreated (UT),0.771
same,Ddx3x avg_logFC,A96 vs untreated (UT),0.2899
same,Ddx3x pct.1,A96 vs untreated (UT),0.701
same,Decr1 avg_logFC,A96 vs untreated (UT),0.3241
same,Decr1 pct.1,A96 vs untreated (UT),0.808
same,Decr2 avg_logFC,A96 vs untreated (UT),0.3728
same,Decr2 pct.1,A96 vs untreated (UT),0.813
same,Dennd5b avg_logFC,A96 vs untreated (UT),0.2871
same,Dennd5b pct.1,A96 vs untreated (UT),0.548
same,Dhcr24 avg_logFC,A96 vs untreated (UT),0.3842
same,Dhcr24 pct.1,A96 vs untreated (UT),0.933
same,Dhdh avg_logFC,A96 vs untreated (UT),0.2837
same,Dhdh pct.1,A96 vs untreated (UT),0.734
same,Dpys avg_logFC,A96 vs untreated (UT),0.2626
same,Dpys pct.1,A96 vs untreated (UT),0.824
same,Dusp6 avg_logFC,A96 vs untreated (UT),0.3249
same,Dusp6 pct.1,A96 vs untreated (UT),0.476
same,Ei24 avg_logFC,A96 vs untreated (UT),0.2718
same,Ei24 pct.1,A96 vs untreated (UT),0.667
same,Eif4g2 avg_logFC,A96 vs untreated (UT),0.2838
same,Eif4g2 pct.1,A96 vs untreated (UT),0.812
same,Elovl5 avg_logFC,A96 vs untreated (UT),0.3232
same,Elovl5 pct.1,A96 vs untreated (UT),0.765
same,Erbb2ip avg_logFC,A96 vs untreated (UT),0.2553
same,Erbb2ip pct.1,A96 vs untreated (UT),0.561
same,Etfdh avg_logFC,A96 vs untreated (UT),0.2802
same,Etfdh pct.1,A96 vs untreated (UT),0.811
same,F5 avg_logFC,A96 vs untreated (UT),0.3557
same,Fmo1 avg_logFC,A96 vs untreated (UT),0.264
same,Fmo1 pct.1,A96 vs untreated (UT),0.606
same,Fth1 avg_logFC,A96 vs untreated (UT),0.3226
same,Fth1 pct.1,A96 vs untreated (UT),0.993
same,G0s2 avg_logFC,A96 vs untreated (UT),0.2947
same,G0s2 pct.1,A96 vs untreated (UT),0.525
same,Gabarapl1 avg_logFC,A96 vs untreated (UT),0.2984
same,Gabarapl1 pct.1,A96 vs untreated (UT),0.881
same,Gclc avg_logFC,A96 vs untreated (UT),0.2707
same,Gclc pct.1,A96 vs untreated (UT),0.839
same,Gclm avg_logFC,A96 vs untreated (UT),0.3282
same,Gclm pct.1,A96 vs untreated (UT),0.865
same,Gfra1 avg_logFC,A96 vs untreated (UT),0.2571
same,Gfra1 pct.1,A96 vs untreated (UT),0.687
same,Gm2a avg_logFC,A96 vs untreated (UT),0.3164
same,Gm2a pct.1,A96 vs untreated (UT),0.587
same,Gm13775 avg_logFC,A96 vs untreated (UT),−1.05
same,Gm13775 pct.1,A96 vs untreated (UT),0.3
same,Gpld1 avg_logFC,A96 vs untreated (UT),0.3039
same,Gpld1 pct.1,A96 vs untreated (UT),0.748
same,Grn avg_logFC,A96 vs untreated (UT),0.3731
same,Grn pct.1,A96 vs untreated (UT),0.629
same,Gsta2 avg_logFC,A96 vs untreated (UT),0.3111
same,Gsta2 pct.1,A96 vs untreated (UT),0.522
same,Gstm3 avg_logFC,A96 vs untreated (UT),−0.5668
same,Gstm3 pct.1,A96 vs untreated (UT),0.23
same,Gstt3 avg_logFC,A96 vs untreated (UT),0.3379
same,Gstt3 pct.1,A96 vs untreated (UT),0.541
same,Gyk avg_logFC,A96 vs untreated (UT),0.4334
same,Gyk pct.1,A96 vs untreated (UT),0.616
same,Hadh avg_logFC,A96 vs untreated (UT),0.2626
same,Hadh pct.1,A96 vs untreated (UT),0.774
same,Hamp2 avg_logFC,A96 vs untreated (UT),0.3052
same,Hamp2 pct.1,A96 vs untreated (UT),0.203
